Results published in BigSolDB 2.1.

O=c1cc(-c2ccc(O)c(O)c2)oc2cc(O)cc(O)c12
solubility (mole fraction)
Settings | 298.2 K | 303.2 K | 308.2 K | 313.2 K | 318.2 K
in DMSO | 0.0515 | 0.0564 | 0.0615 | 0.0665 | 0.0715
in ethanol | 0.00188 | 0.00209 | 0.00241 | 0.00273 | 0.00308
in ethyl acetate | 0.00261 | 0.00313 | 0.00368 | 0.00438 | 0.00511
in ethylene glycol | 0.0013 | 0.00158 | 0.0019 | 0.00229 | 0.00268
in isopropanol | 0.00251 | 0.00278 | 0.00316 | 0.00366 | 0.00414
in methanol | 0.00047 | 0.000537 | 0.000638 | 0.000727 | 0.000816
in n-butanol | 0.00335 | 0.00369 | 0.00415 | 0.00477 | 0.00536
in propylene glycol | 0.00212 | 0.00249 | 0.00289 | 0.00336 | 0.00389
in sec-butanol | 0.0035 | 0.00381 | 0.00435 | 0.00489 | 0.00553
in transcutol | 0.0309 | 0.0331 | 0.0354 | 0.0378 | 0.0401
in water | 1.75e-06 | 2.24e-06 | 2.83e-06 | 3.49e-06 | 4.17e-06

Settings | solubility (mole fraction)
in PEG-400, 298.2 K | 0.1
in PEG-400, 303.2 K | 0.106
in PEG-400, 308.2 K | 0.113
in PEG-400, 313.2 K | 0.119
in PEG-400, 318.2 K | 0.127
